Patent publication US6136992A, “2-alkoxy estradiols and derivatives thereof” (The United States of America as represented by the …, priority 1998, dated 2000)

Tested on: HL-60(TB)
Experiment: NCI screen, leukemia
Type: cell-based
Details: Homo sapiens, read-out: Log10 GI50, HL-60(TB) (converted)

Compound `C[C@]12CC[C@@H]3c4cc(OCC(F)(F)F)c(O)cc4C(=NO)C[C@H]3[C@@H]1CC[C@@H]2O` [Compound 12, 2-(2',2', 2'-Trifluoroethoxy)-6-Hydroximino-Estra-1,3,5(10)-Triene-3,17β-Diol] has a GI50 of under 10 nM.
